Literature values, collected in US20180206518A1, “METHOD OF MAKING CANNABIS OIL H[…] E[…] RELATED CANNABINOID COMPOSITIONS” (priority 2016, published 2018).

Conditions: edible cannabis products, depending on liver function

In the case of CCCCCc1cc(O)c2c(c1)OC(C)(C)[C@@H]1CCC(C)=CC21 (stereo partly shown) [THC, Δ9-tetrahydrocannabinol], the “THC able to be metabolized” value is given as 2-6%.
